Assay results as given in patent US20230130823A1, “PROCESS FOR THE PRODUCTION OF ANTITUMOUR PHARMACEUTICAL COMPOSITIONS USING PUSH-PULL BUTADIENES, COMPOUNDS AND USES THEREOF” (ANHANGUERA EDUCACIONAL PARTICIPAÇÕES S/A, priority 2019, published 2023).

Assays:
CaCo2 = experiment: In vitro cytotoxicity, CaCo2 colon line; assay type: cell-based; conditions: Homo sapiens, Caco-2; CaCo2, colon; read-out: IC50
HT-29 = experiment: In vitro cytotoxicity, HT-29 colon line; assay type: cell-based; conditions: Homo sapiens; HT-29, colon; read-out: IC50
Colo205 [1] = experiment: In vitro cytotoxicity, Colo205 colon line; assay type: cell-based; conditions: Homo sapiens, COLO 205; Colo205, colon; read-out: IC50
SW620 = experiment: In vitro cytotoxicity, SW620 colon line; assay type: cell-based; conditions: Homo sapiens, SW-620; SW620, colon; read-out: IC50
CRO2B = experiment: In vitro cytotoxicity, CRO2B carcinoid line; assay type: cell-based; conditions: Homo sapiens, carcinoid, read-out: IC50
MIAP2 = experiment: In vitro cytotoxicity, MIAP2 pancreas line; assay type: cell-based; conditions: Homo sapiens; MIAP2, pancreas; read-out: IC50
BxPC3 = experiment: In vitro cytotoxicity, BxPC3 pancreas line; assay type: cell-based; conditions: Homo sapiens, BXPC-3; BxPC3, pancreas; read-out: IC50
PANC1 = experiment: In vitro cytotoxicity, PANC1 pancreas line; assay type: cell-based; conditions: Homo sapiens, PANC-1; PANC1, pancreas; read-out: IC50
tumor cells line Colo205 = experiment: Colo205 cell count; assay type: cell-based; conditions: compared to cells treated with culture medium only
Procedure: The compounds were tested for their ability to reduce the number of cells in the tumor, compared to cells treated with culture medium only. In Table 4, the results obtained are shown.

Colo205 [2] = experiment: Determination of apoptotic cells (subG1), Colo205, flow cytometry; assay type: cell-based; conditions: sub-diploid DNA content
Text: Determination of Apoptotic Cells (subG1)-Colo205
In this experiment, the proportion of apoptotic cells was identified, that is, cells showing DNA content below normal (sub-diploid) in flow cytometry testing.

Colo205 [3] = experiment: Analysis of the cell cycle phases, Colo205; assay type: cell-based; conditions: for Cell cycle phase (%) G2M: G2/M phase
Text: The compounds of this family were also studied for the distribution of the population of tumor cells in the different phases of the cell cycle: quiescent cells, non-proliferating (G1/G0 phase), which present DNA/RNA synthesis capacity (S phase) and cell division cells (G2/M phase).

[4] = tested on: lines of human carcinoma tested; experiment: In vitro cytotoxicity against the panel of human carcinoma lines; conditions: tumor cell lines of human carcinoma tested
[5] = tested on: 4T1 (murine mammary carcinoma); experiment: Cytotoxicity, 4T1 cells; assay type: cell-based; conditions: Mus musculus, read-out: CI50% tumor cells
[6] = tested on: MCF-7 (human mammary adenocarcinoma); experiment: Cytotoxicity, MCF-7 cells; assay type: cell-based; conditions: MCF7, read-out: CI50% tumor cells
[7] = tested on: SCC9 (squamous-cell carcinoma of the oral cavity); experiment: Cytotoxicity, SCC9 cells; assay type: cell-based; conditions: Homo sapiens, SCC-9, read-out: CI50% tumor cells
[8] = tested on: HUVEC (Normal human endothelial cell); experiment: Cytotoxicity, HUVEC normal cells
[9] = tested on: SCC25 (squamous-cell carcinoma of the oral cavity); experiment: Cytotoxicity, SCC25 cells; assay type: cell-based; conditions: Homo sapiens, SCC-25, read-out: CI50% tumor cells
[10] = tested on: murine melanoma cells B16F10; experiment: MTT cytotoxicity in B16F10 melanoma cells; assay type: cell-based; conditions: compared with the acetylacetone-derived benzoate isomers
Procedure: The tumor line of murine melanoma B16F10 was donated by the Ludwig-Switzerland Institute. Adherent cell suspensions of B16F10 cells were obtained for all experimental procedures by treating culture flasks with trypsin 0.2% for 5 minutes and inactivated with 10% fetal bovine serum. The detached cells were centrifuged twice, resuspended in supplemented RPMI-1640 medium. The count was performed in Malassez chamber, and the cell concentration was adjusted in 5×10^5 cells/ml, in RPMI-1640 culture medium supplemented with 10% fetal bovine serum and 7 ug polymyxin-B (Sigma Chemical Company, St Louis Mo.-USA).
Cell viability was determined by the Trypan Blue exclusion test, being greater than 95% of viable cells. The cells were grown in plates with 96 well plate flat bottoms (Corning), at a concentration of 2×10^5 cells, maintained for 24 hours in a CO2 oven at 37° C. After this period, the plates were centrifuged for 5 minutes, at 2000 rpm at 4° C., the supernatant discarded and added different concentrations of the compounds, diluted in RPMI-1640 culture medium, supplemented and increased by 7 μg of Polymyxin-B (Sigma Chemical Company). After treatment with the various diluted compounds in complete culture medium, the cells were incubated with 0.5 mg/mL of MTT reactive.
The cell viability test was performed to verify the effect of the various compounds on the various concentrations previously established: on the lines of tumor cells B16F10 and normal human fibroblasts. The MTT method consists of a cell viability test that measures the activity of mitochondrial dehydrogenase. MTT is a colorimetric method based on the capacity of living cells to reduce salt 3-(4,5-di-methylazole-2-IL)-2,5-diphenyl tetrazolium bromide in the formazan product (Mosmann, 1983). After the cells plating (concentration of 1×10^4 per well of the culture plate) in RPMI-1640 medium and 10% SFB medium, they were maintained at 37° C. for periods of 24, 48, 72 and 96 hours. Four hours before the set time was completed, MTT 20 μL (Sigma) was added (final concentration of […]). The plates were kept in the oven for the remaining four hours. After the stipulated time, 180 μL of the supernatant were removed from each well and then added 150 μL of dimethyl sulfoxide (Sigma) homogenizing well for the complete dissolution of the salt crystals formed by the mitochondrial metabolism resulting in a staining.
The 96-well plate was read by the spectrophotometer (Spectra MAX-190) using the wavelength of 570 nm. The results were analyzed by absorbance of each well. The percentage of viability was obtained using the following formula: [(Absorbance of treated cells/Absorbance of untreated cells)×100]. The experiments were carried out in quadruplicate.
The samples of the compounds obtained by synthesis chemistry were diluted in DMSO solution at the final concentration of 10%.

SMILES	Relative number of cells (% ± standard deviation) (tumor cells line Colo205) [%]	Percentage of cells (apoptotic, subG1) (Colo205 [2]) [%]	Cell cycle phase (%) G1/G0 (Colo205 [3]) [%]	Cell cycle phase (%) G2M (Colo205 [3]) [%]	Cell cycle phase (%) S (Colo205 [3]) [%]	cytotoxic activity (in words) [4]	IC50 [5] [µM]	IC50 [7] [µM]	other results
CC(C)=CCOc1ccc(C(C)=C(C#N)C#N)cc1 [Compound 2]	12.7 ± 0.339	35.7 ± 1.485	90.0 ± 0.91	0.8 ± 0.42	9.15 ± 0.49	exhibited a better cytotoxic activity			IC50 (CaCo2): 163 µM; IC50 (HT-29): 92 µM; IC50 (Colo205 [1]): 149 µM; IC50 (SW620): 134 µM; IC50 (CRO2B): 149 µM; IC50 (MIAP2): 155 µM; IC50 (BxPC3): 160 µM; IC50 (PANC1): 177 µM
COc1ccc(C(=O)/C(C#N)=C/C=C(\Cl)c2ccc(I)cc2)cc1OC [Compound 21, 5-chloro-2-(3,4-dimethoxy-benzoyl)-5-(4-iodine-phenyl)-penta-2,4-dienonitrile]							6.44	0.858	IC50 [6]: 0.293 µM; CI50% Normal cells [8]: 16.4 µM
CC(=O)C(=C/C=C(\Cl)c1ccc(C#C[C@@H]2O[C@H](CO)[C@@H](O)[C@H](O)[C@@H]2O)cc1)C(C)=O [Compound 18B, 3-((Z)-3-chloro-3-(4-(2-((2S,3R,4R,5R)-tetrahydro-3,4,5-trihydroxy-6-(Hydroxymethy)-2H-pyran-2-il)ethynyl)phenyl)allilideno)pentano-2,4-dione]							0.431	0.445	IC50 [9]: 0.453 µM; CI50% Normal cells [8]: 0.293 µM
O=CC=C(Cl)c1ccc(OC(=O)c2ccccc2)cc1OC(=O)c1ccccc1 [Compound 27, 3-Chloro-3-(2,4-benzoyloxy-phenyl)propenal]	32.3 ± 1.017	18.0 ± 0.354	54.2 ± 0.35	12.4 ± 0.63	33.4 ± 0.21				
CC(=O)C(=C/C=C(\Cl)c1ccc(I)cc1)C(C)=O [Compound 18, 3-acetyl-6-chloro-6-(4-iodophenyl)-hexa-3,5-diene-2-ona]							3.71	10.9	times more active [10]: ~7 times; IC50 [6]: 0.666 µM
CC(=O)c1ccc(OCC=C(C)C)cc1 [Compound 1, 4-(3-methylbut-2-enyl-oxyi)acetophenone]	70.2 ± 0.339	5.2 ± 0.566	48.0 ± 2.54	5.0 ± 2.26	47.0 ± 0.28	showed no cytotoxic activity			IC50 (CaCo2): 759 µM; IC50 (HT-29): 455 µM; IC50 (Colo205 [1]): 1030 µM; IC50 (SW620): 980 µM; IC50 (CRO2B): 666 µM; IC50 (MIAP2): 823 µM; IC50 (BxPC3): 725 µM; IC50 (PANC1): 759 µM
CC(=O)c1ccccc1C(=O)Oc1ccccc1 [Compound 4, 2-Acetyl Benzoate of Phenyl]						inactive			
